Measurements published in paper PMC10135569, “Does Enhanced Structural Maturity of hiPSC-Cardiomyocytes Better for the Detection of Drug-Induced Cardiotoxicity?” (Biomolecules, 2023).
“Also recorded” adds a separate entry of the source. Read-outs that look alike come from different tables or passages of the source.

Assays:
[1] = listed in Supplementary Table S1; no reference given; cited from earlier work
[2] = system: hiPSC-CMs (iCell2 Cardiomyocytes) 2D monolayers; test: Membrane potential (action potential) recordings with FluoVolt voltage-sensitive dye on the CellOPTIQ platform; type: cell-based, human; details: for effect on APD90: positive control
Experimental: (§1) Cardiomyocytes (FUJIFILM Cellular Dynamics, Madison, WI, USA) were kept at −190 °C and prepared for culture as per the manufacturer’s instructions.
(§2) Standard fibronectin vs. Matrix Plus well coating: The cells were cultured using two different coatings in a humidified incubator at 37 °C with 5% CO2. First, 96-well glass-bottomed plates (MatTek, Ashland, MA) were coated with fibronectin ([…] in PBS supplemented with Ca^2+ and Mg^2+; Sigma, St. Louis, MO, USA) (defining FM). Second, CELLvo^TM Matrix Plus (StemBioSys, San Antonio, TX, USA), which were pre-coated on 96 well glass bottom plates and kept at 4 °C. On the day of plating, CELLvo^TM Matrix Plus plates were transferred to room temperature, rehydrated with phosphate buffer saline (PBS), incubated for 1 h at 37 °C, and washed 2× with PBS. Cells were introduced at a density of 50,000 cells/well to allow the formation of a confluent monolayer in each well (defined as MM). The maintenance protocols followed the manufacturer’s instructions and used the iCell^2 Cardiomyocytes Maintenance media for media changes every 2 days. Experiments were performed between days 5 and 6, as recommended by the manufacturers. Before beginning an experiment, cells were washed in serum-free media (SF media) (Fluorobrite DMEM, Gibco, Thermo Fisher Scientific, Horsham, UK).
(§3) The drug powders were dissolved in DMSO, and four stock concentrations at 1000× the final target concentration were prepared in DMSO. For the experiment, an intermediate concentration 2× the target solution was prepared in SF media. The addition of drugs to the cells was accomplished by replacing 50% of the well volume with the intermediate 2× solution. The same procedure was done for vehicle control using DMSO. The experimental number n = 8/concentration/testing compound in the FM or MM condition, and n = 36 for each positive or negative control in the FM or MM condition.
Cultures of hiPSC-CMs (5–6 days post-plating) were treated with FluoVolt dye (1:1000, Invitrogen, Cat# F10488) in SF media and incubated for 20 min at 37 °C with 5% CO2 and 80% humidity. Multi-well plates were placed in the environmentally controlled stage incubator (37 °C, 5% CO2, water-saturated air atmosphere) (Okolab Inc. Burlingame, CA) of the CellOPTIQ® platform (Clyde Biosciences Ltd., Glasgow, Scotland). The FluoVolt signal was recorded from a 0.2 mm × 0.2 mm area using a 40× (numerical aperture: NA 0.6) Excitation wavelength was 470 ± 10 nm using a light-emitting diode (LED), and emitted light was collected by two photomultipliers (PMTs) at 510–560 nm (channel 1) and 590–650 nm (channel 2), respectively. LED, PMT, and associated power supplies and amplifiers were supplied by Cairn Research Ltd. (Kent, UK) and digitized at 10 kHz and stored on a computer hard drive. In the case of FluoVolt-based action potential recordings, the short wavelength (channel 1, […]) was analyzed for action potential features.
(§4) The dye FluoVolt is loaded into the surface membrane (outer leaflet), and the dye remains within the membrane for many dots, allowing intermittent voltage measurements over the experimental period. In this study, measurements were restricted to within 30 mins of application of the drug. The measurements were made on the same area before/after drug/DMSO addition. […] Baseline spontaneous electrical activity and the associated contractility signal were recorded by capturing 10 s segments of fluorescent signal and video for 2D plates and 15 s for organoids from each well prior to compound addition. Drugs were tested at four concentrations in n = 8 independent replicates (i.e., 8 wells from a single plating) at each concentration. A vehicle control was included for each drug. A 10 s or 15 s recording was then taken 30 min after exposure to the drug or vehicle with only one concentration applied/well.

[3] = system: hiPSC-CMs (iCell2 Cardiomyocytes) 2D monolayers; test: Contractility measurements using video imaging (ContractilityTool / MUSCLEMOTION); type: cell-based, human
Experimental: as §1, §2, §3
as §4, with “applied/well. Offline analysis was performed using proprietary software (CellOPTIQ®).” for “applied/well.”
Short periods (10 s or 15 s) of video were analyzed using the ContractilityTool application (developed by F.L. Burton), which is an implementation of the MUSCLEMOTION algorithm.

[4] = range of concentrations, negative control, FM and MM
[5] = FM monolayer, 0.01 µM, 30 min, delta over DMSO 0.1%
[6] = FM monolayer, 0.1 µM, 30 min, delta over DMSO 0.1%
[7] = FM monolayer, 0.3 µM, 30 min, delta over DMSO 0.1%
[8] = FM monolayer, 1 µM, 30 min, delta over DMSO 0.1%
[9] = MM monolayer, 0.01 µM, 30 min, delta over DMSO 0.1%
[10] = MM monolayer, 0.1 µM, 30 min, delta over DMSO 0.1%
[11] = MM monolayer, 0.3 µM, 30 min, delta over DMSO 0.1%
[12] = MM monolayer, 1 µM, 30 min, delta over DMSO 0.1%

For `COCCOC(=O)C1=C(C)NC(C)=C(C(=O)OC(C)C)C1c1cccc([N+](=O)[O-])c1` (centres unmarked) [Nimodipine], the “Free Cmax” value [1] is listed as 69 nM.

In the case of `CN(CCOc1ccc(NS(C)(=O)=O)cc1)CCc1ccc(NS(C)(=O)=O)cc1` [Dofetilide], the “Free Cmax” value [1] is listed as 2.7 nM and the “effect on APD90” value ([2]; 10 nM, both 2D models) is listed as “significantly prolonged”.

With `O=C(O)COCCN1CCN(C(c2ccccc2)c2ccc(Cl)cc2)CC1` (centres unmarked) [Cetirizine] the activity at 0.1 µM ([3]; Homo sapiens, Cardiomyocyte, 0.5 h, FM monolayer, 0.1 µM, 30 min, delta over DMSO 0.1%, read-out: CtAmp (%DD)) was 72 ± 13.3%, the activity at 0.3 µM ([3]; Homo sapiens, Cardiomyocyte, 0.5 h, FM monolayer, 0.3 µM, 30 min, delta over DMSO 0.1%, read-out: CtAmp (%DD)) was 87 ± 14.6% and the activity at 1 µM ([3]; Homo sapiens, Cardiomyocyte, 0.5 h, FM monolayer, 1 µM, 30 min, delta over DMSO 0.1%, read-out: CtAmp (%DD)) was 129 ± 32.9%. The activity at 1 µM ([3]; Homo sapiens, Cardiomyocyte, 0.5 h, MM monolayer, 1 µM, 30 min, delta over DMSO 0.1%, read-out: CtAmp (%DD)) was 118 ± 14.2%, the activity at 3 µM ([3]; Homo sapiens, Cardiomyocyte, 0.5 h, MM monolayer, 3 µM, 30 min, delta over DMSO 0.1%, read-out: CtAmp (%DD)) was 87 ± 5.3% and the “change in the contractility parameters” value [3, 4] was “No change”. It also gave an activity at 0.1 µM ([2]; Homo sapiens, Cardiomyocyte, 0.5 h, FM monolayer, 0.1 µM, 30 min, delta over DMSO 0.1%, read-out: Trise (%DD)) of 154 ± 32.6%, an activity at 0.3 µM ([2]; Homo sapiens, Cardiomyocyte, 0.5 h, FM monolayer, 0.3 µM, 30 min, delta over DMSO 0.1%, read-out: Trise (%DD)) of 127 ± 16.8% and an activity at 3 µM ([2]; Homo sapiens, Cardiomyocyte, 0.5 h, FM monolayer, 3 µM, 30 min, delta over DMSO 0.1%, read-out: Trise (%DD)) of 122 ± 8.8%. The activity at 0.1 µM ([2]; Homo sapiens, Cardiomyocyte, 0.5 h, MM monolayer, 0.1 µM, 30 min, delta over DMSO 0.1%, read-out: Trise (%DD)) was 146 ± 16.9% and the “change in the voltage parameters” value [2, 4] was “No change”.

With `NC(=Nc1ccc(OCCCCCOc2ccc(N=C(N)c3ccccc3)cc2)cc1)c1ccccc1` [PA-6] the “CtAmp (%DD)” value [3, 5] was 103±8.8 %DD, the “CtD50 (%DD)” value [3, 5] was 104±1.7 %DD and the “CtAmp (%DD)” value [3, 6] was 111±14.2 %DD. For the same molecule, the “CtD50 (%DD)” value [3, 6] was 105±1.8 %DD, the “CtAmp (%DD)” value [3, 7] was 105±10.2 %DD and the “CtD50 (%DD)” value [3, 7] was 106±2.1 %DD. For the same molecule, the “CtAmp (%DD)” value [3, 8] was 111 ± 8.1 %DD, the “CtD50 (%DD)” value [3, 8] was 112±2.5 %DD and the “CtAmp (%DD)” value [3, 9] was 127±13 %DD. For the same molecule, the “CtD50 (%DD)” value [3, 9] was 101±1.3 %DD, the “CtAmp (%DD)” value [3, 10] was 99±11.2 %DD and the “CtD50 (%DD)” value [3, 10] was 103±1.1 %DD. The “CtAmp (%DD)” value [3, 11] was 135±22.2 %DD, the “CtD50 (%DD)” value [3, 11] was 105±1.9 %DD and the “CtAmp (%DD)” value [3, 12] was 114±9.8 %DD. For the same molecule, the “CtD50 (%DD)” value [3, 12] was 107±1.2 %DD, the “APD30 (%DD)” value [2, 5] was 108±3.6 %DD and the “APD90 (%DD)” value [2, 5] was 104±1.1 %DD. The “CL (%DD)” value [2, 5] was 101±0.8 %DD, the “Trise (%DD)” value [2, 5] was 101±17.4 %DD and the “APD30 (%DD)” value [2, 6] was 99±3 %DD. The “APD90 (%DD)” value [2, 6] was 107±1.4 %DD, the “CL (%DD)” value [2, 6] was 98±2.3 %DD and the “Trise (%DD)” value [2, 6] was 70±6.1 %DD. The “APD30 (%DD)” value [2, 7] was 105±2.4 %DD, the “APD90 (%DD)” value [2, 7] was 111±0.8 %DD and the “CL (%DD)” value [2, 7] was 101±2.5 %DD. For the same molecule, the “Trise (%DD)” value [2, 7] was 89±10.8 %DD, the “APD30 (%DD)” value [2, 8] was 110±1.3 %DD and the “APD90 (%DD)” value [2, 8] was 116±1.3 %DD. The “CL (%DD)” value [2, 8] was 108±1.4 %DD, the “Trise (%DD)” value [2, 8] was 128 ± 15.8 %DD and the “APD30 (%DD)” value [2, 9] was 107±1.9 %DD. For the same molecule, the “APD90 (%DD)” value [2, 9] was 103±1.5 %DD, the “CL (%DD)” value [2, 9] was 97±0.7 %DD and the “Trise (%DD)” value [2, 9] was 119±25.1 %DD. For the same molecule, the “APD30 (%DD)” value [2, 10] was 105±1 %DD, the “APD90 (%DD)” value [2, 10] was 111±2.2 %DD and the “CL (%DD)” value [2, 10] was 100±0.5 %DD. The “Trise (%DD)” value [2, 10] was 74±17.9 %DD, the “APD30 (%DD)” value [2, 11] was 107±1.9 %DD and the “APD90 (%DD)” value [2, 11] was 111±1 %DD. The “CL (%DD)” value [2, 11] was 102±0.8 %DD, the “Trise (%DD)” value [2, 11] was 96±12.7 %DD and the “APD30 (%DD)” value [2, 12] was 107±1.5 %DD. The “APD90 (%DD)” value [2, 12] was 111±1.7 %DD, the “CL (%DD)” value [2, 12] was 108±2.4 %DD and the “Trise (%DD)” value [2, 12] was 138±14.2 %DD. The “effect on APD90 (in words)” value ([2]; both FM and MM monolayers, concentration not given) was “mild APD90 prolongation” and the “effect of selective Kir2.1 channel block” value ([2]; both experimental groups) was “lack of effect”.

In the case of `CC(=O)OCC[N+](C)(C)C` [acetylcholine], the “effect on beating rate / spontaneous rate (in words)” value ([2]; both FM and MM, concentration not given) is reported as “decrease” and the “changes in the APD” value ([2]; both groups (FM and MM)) is reported as < 10%.

With `COC(=O)C1=C(C)NC(C)=C(C(=O)OC)C1c1ccccc1[N+](=O)[O-]` [Nifedipine] the “effect on duration of contraction” value ([3]; 100 nM, 2D monolayers on fibronectin and Matrix Plus, positive control) was “shortened; also recorded: reduced” and the “effect on APD90” value ([2]; 100 nM, 2D monolayers on fibronectin and Matrix Plus) was “shortened; also recorded: reduced”.
